These results are taken from PubChem BioAssay AID602267 (Broad Institute, 2012).

This test deals with Golgi-associated PDZ and coiled-coil motif-containing protein (Homo sapiens) (UniProt Q9HD26). Nature of the test: blockers of CAL PDZ ligand groove binding – biochemical, fluorescence polarization, untagged CAL PDZ, cherry-pick, dose response (AID 602267). To be noted: purified CAL PDZ, TMR-peptide fluorescence polarization, 1 h.

Each structure is given as a SMILES string. Active and inactive are the calls of the source.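 The calls were made as follows: active = signal falls with dose and the fitted half-maximal concentration is at or below twice the top valid tested dose; inconclusive = flat curve with 30 to 70% inhibition, or poor fit; inactive = wrong direction, flat within 30%, or potency beyond limit.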

What is called AC50 is the concentration at which the activity in the assay is half-maximal.

As for `O=C(CCCn1c(=S)[nH]c2cc3c(cc2c1=O)OCO3)N1CCN(c2ccc(Cl)cc2)CC1`, the “activity change, negative = inhibition” value (at 50 µM (top of the series)) is “inactive”.

Consider `O=C(Nc1nc2ccccc2[nH]1)c1cc2ccccc2o1`, for which, where the note is “at 50 µM (top of the series)”, the “activity change, negative = inhibition” value was “inactive”.

For `COc1ccc(C(CNC(=O)COc2ccccc2-c2ccccc2)N2CCOCC2)cc1` (stereo not given), the “activity change, negative = inhibition” value (at 50 µM (top of the series)) was “inactive”.

Regarding `S=C(NCCc1ccccc1)NC1CCC(NC(=S)NCCc2ccccc2)CC1` (stereo not given), the “activity change, negative = inhibition” value (at 50 µM (top of the series)) was “inactive”.

In the case of `C=CCOC(=O)C1=C(C)Nc2nc3ccccc3n2C1c1ccncc1` (stereo not given), under “at 50 µM (top of the series)”, the “activity change, negative = inhibition” value is “inactive”.

Take `COc1cc(C(=O)ON=C2C(C)=CC(=O)C=C2C)cc(OC)c1OC`: the “activity change, negative = inhibition” value (at 50 µM (top of the series)) was “inactive”.

In the case of `O=C(CSc1nc2c(sc3ccccc32)c(=O)n1Cc1ccccc1)NCC1CCCO1` (stereo not given), for the setting “at 50 µM (top of the series)”, the “activity change, negative = inhibition” value is “inactive”.

Regarding `O=C1CC(c2ccccc2)=C(c2ccccc2)C1`, the “activity change, negative = inhibition” value (at 50 µM (top of the series)) was “inactive”.

Regarding `COCCOC(=O)c1c(C)oc2ccc(OS(C)(=O)=O)cc12`, for the setting “at 50 µM (top of the series)”, the “activity change, negative = inhibition” value was “inactive”.

Turning to `O=C(COC(=O)c1cccnc1Cl)Nc1ccc2c(c1)OCO2`, the “activity change, negative = inhibition” value (at 50 µM (top of the series)) was “inactive”.

As to `CSc1ccccc1NC(=O)C1CC(c2c(F)cccc2Cl)=NO1` (stereo not given), the “activity change, negative = inhibition” value (at 50 µM (top of the series)) is “inactive”.

Regarding `CCc1nc2ccccc2c(C(=O)Oc2cccc3cccnc23)c1C`, under “at 50 µM (top of the series)”, the “activity change, negative = inhibition” value is “inactive”.

Regarding `CCc1nnc(NS(=O)(=O)c2ccc(NC(=O)CCC(=O)O)cc2)s1`, the “activity change, negative = inhibition” value (at 50 µM (top of the series)) is “inactive”.

As to `Cc1cc(C(=O)CN2CCCC2)c(C)n1-c1ccc(Cl)cc1`, the “activity change, negative = inhibition” value (at 50 µM (top of the series)) was “inactive”.

With `COCCCNC(=O)c1c[nH]c2ccc(S(=O)(=O)N3CCC(C)CC3)cc2c1=O`, the “activity change, negative = inhibition” value (at 16 µM (top of the series)) is “inactive”.

Consider `Cc1ccc(CNC2CCCCC2)s1`, for which the “activity change, negative = inhibition” value (at 50 µM (top of the series)) is “inactive”.

Consider `CC(C)Oc1ccc(C(=O)Nc2ccc(S(=O)(=O)N3CCN(C)CC3)cc2)cc1`, for which, for the setting “at 50 µM (top of the series)”, the “activity change, negative = inhibition” value is “inactive”.

On to `Cc1cc(SCC(=O)OCC(=O)c2c(N)n(C)c(=O)n(C)c2=O)c(C)cc1Br`, for which the “activity change, negative = inhibition” value (at 50 µM (top of the series)) is “inactive”.

Regarding `CS(=O)(=O)N(CC(=O)N1CCOCC1)c1cccc(F)c1`, where the note is “at 50 µM (top of the series)”, the “activity change, negative = inhibition” value is “inactive”.

As for `CC1Cc2ccccc2N1C(=O)CNc1ccccc1N1CCCCC1` (stereo not given), the “activity change, negative = inhibition” value (at 50 µM (top of the series)) is “inactive”.

As for `COc1cc(N(C)C)ccc1C=c1c2ccccc2n2c1cc(-c1ccccc1)[n+]2C`, the “activity change, negative = inhibition” value (at 50 µM (top of the series)) was “inactive”.

With `CCN(CC)S(=O)(=O)c1ccc2nc(NC(=O)c3ccco3)sc2c1`, the “activity change, negative = inhibition” value (at 50 µM (top of the series)) is “inactive”.

Regarding `O=C(O)CSc1cc(NS(=O)(=O)c2ccc(Cl)cc2)c2ccccc2c1O`, the AC50 was 32.9 µM.

Regarding `Cc1ccccc1-n1c(C)c(C#N)c(=O)c(-[n+]2ccccc2)c1[S-]`, under “at 50 µM (top of the series)”, the “activity change, negative = inhibition” value was “inactive”.

As to `COc1ccc(/C=N/Nc2cc(C)nc3ccc(OC)cc23)c(OC)c1`, the “activity change, negative = inhibition” value (at 50 µM (top of the series)) was “inactive”.

For the compound `C[C@H](NC(=O)c1ccccc1Cl)C(=O)NCc1cccs1`, where the note is “at 50 µM (top of the series)”, the “activity change, negative = inhibition” value was “inactive”.

Regarding `CCOC(=O)C1=C(C)OC(N)=C(C#N)C1c1cccc(C)c1` (stereo not given), the “activity change, negative = inhibition” value (at 50 µM (top of the series)) was “inactive”.

Regarding `CCOc1c(Cl)cc(CNc2nnnn2C)cc1OC`, the “activity change, negative = inhibition” value (at 50 µM (top of the series)) was “inactive”.

`COc1ccccc1Oc1coc2cc(OC(=O)N3CCOCC3)ccc2c1=O`: the “activity change, negative = inhibition” value (at 50 µM (top of the series)) was “inactive”.

Consider `COCC(=O)NNC(=O)c1ccc(OC)cc1`, for which the “activity change, negative = inhibition” value (at 50 µM (top of the series)) is “inactive”.

For `Cc1ccc(S(=O)(=O)N2CCN(C(=O)N(C)C)CC2)cc1`, under “at 50 µM (top of the series)”, the “activity change, negative = inhibition” value is “inactive”.

As for `CN(C)c1ccc(C=c2c3ccccc3n3c2cc(-c2ccccc2)[n+]3C)cc1`, the “activity change, negative = inhibition” value (at 50 µM (top of the series)) was “inactive”.

In the case of `Cc1cccc(NS(=O)(=O)Cc2ccccc2)c1C`, the “activity change, negative = inhibition” value (at 50 µM (top of the series)) was “inactive”.

Consider `O=C(NCCc1ccccc1)C1CCC(=O)N(CCCN2CCCC2=O)C1` (stereo not given), for which the “activity change, negative = inhibition” value (at 50 µM (top of the series)) was “inactive”.

Turning to `Cc1cc(Cl)c(Cl)cc1S(=O)(=O)NCCCn1ccnc1`, the “activity change, negative = inhibition” value (at 50 µM (top of the series)) is “inactive”.

Take `CCC(C)NC(=O)C1CCCN(C(=O)Nc2ccc(F)cc2)C1` (stereo not given): the “activity change, negative = inhibition” value (at 50 µM (top of the series)) was “inactive”.

In the case of `COCCCNC(=O)c1cc(S(=O)(=O)N2CCOCC2)ccc1SCc1cccc(OC)c1OC`, the “activity change, negative = inhibition” value (at 50 µM (top of the series)) is “inactive”.

Consider `CCOC(=O)Cn1ncn(-c2ccc(OC(F)(F)F)cc2)c1=O`, for which the “activity change, negative = inhibition” value (at 50 µM (top of the series)) was “inactive”.

As for `O=C(O)c1[nH]c2ccccc2c1C(c1ccccc1)c1c(C(=O)O)[nH]c2ccccc12`, the “activity change, negative = inhibition” value (at 50 µM (top of the series)) was “inactive”.

Turning to `CCOC(=O)/C=C/C(=O)OCC(=O)Nc1ccc([N+](=O)[O-])cc1`, where the note is “at 50 µM (top of the series)”, the “activity change, negative = inhibition” value was “inactive”.

Regarding `CCN(CC)CCC(=O)N1c2ccccc2CCc2ccc(NC(=O)OC(C)C)cc21`, the “activity change, negative = inhibition” value (at 50 µM (top of the series)) is “inactive”.

Regarding `COc1ccc(Oc2nc3c(c(=O)n(C)c(=O)n3C)n2C)cc1`, the “activity change, negative = inhibition” value (at 50 µM (top of the series)) was “inactive”.

Turning to `O=P(O)(COc1ccccc1)COc1ccccc1`, the “activity change, negative = inhibition” value (at 50 µM (top of the series)) was “inactive”.

`Cn1c(=O)c2c(nc(SCC(=O)NCC3CCCO3)n2Cc2ccc(F)cc2)n(C)c1=O` (stereo not given): for the setting “at 50 µM (top of the series)”, the “activity change, negative = inhibition” value was “inactive”.

`C/C(CC(=O)Nc1ccc(C)c(Cl)c1)=N\NC(=O)Cc1cnc(N)s1`: the “activity change, negative = inhibition” value (at 50 µM (top of the series)) was “inactive”.
